Reference: ChEMBL document CHEMBL5727793, “Covalent inhibitors of PAD4” (2020)

Experiment: RapidFire Mass Spectrometry (RFMS) Activity Assay: Compounds were solubilized in 100% DMSO to achieve 100 mM final compound concentration. Compound stock solutions were stored at RT. A series of dilutions were prepared in DMSO and mixed 8 times with 20 μL mixing volume. […] After 5 mins, 10 μL of 100 μM of substrate in buffer (100 mM Tris-HCl pH 7.6, 2 mM DTT, 2 mM CaCl2) was added and the reaction incubated for 60 mins at 37° C. The enzymatic reaction was quenched by addition of 40 μl of 5% TCA in ACN (1.7% TCA final concentration) stop solution. Arginine containing substrate and citrulline containing product (+1 Da mass shift) were subjected to solid phase extraction on Agilent RapidFire (RF) 300 system and detected on a coupled, triple quadrupole Agilent 6460 QQQ mass spectrometry (MS) device under application of multiple reaction monitoring (MRM) for quantitation.

IC50	SMILES
> 10 µM	CN(C)C/C=C/C(=O)N[C@H]1CCN(C(=O)c2ccc3c(c2)nc(-c2cc4cccnc4n2CC2CC2)n3C)C[C@H]1N
> 10 µM	CN(C)C/C=C/C(=O)N[C@@H]1C[C@H](N)CN(C(=O)c2ccc3c(c2)nc(-c2cc4cccnc4n2CC2CC2)n3C)C1
